Results on ten molecules are retold here after PMC6395927, “Rufomycin Targets ClpC1 Proteolysis in Mycobacterium tuberculosis and M. abscessus” (Antimicrobial Agents and Chemotherapy, 2019).

Each structure is given as a SMILES string. Converted amounts (≈) assume the structure as drawn. Where two headings read alike, the source gives them in different places. Numbered stars: 1 amine (or outer) side, 2 acyl side, 3 side chain; on linkers, the order of the positions; unused ones are H or OH. Square brackets hold non-standard residues; d marks the D form. Peptide text beside a SMILES is read from it. ξ: configuration not given here. X4 = CC(C)(C1CO1)n1cc(C[C@H](N[*:1])C(=O)[*:2])c2ccccc21; Tyr(3-NO2) = N[C@@H](Cc1ccc(O)c([N+](=O)[O-])c1)C(=O)O; Gly(E-crotyl) = C/C=C/C[C@H](N)C(=O)O; ξNMeL = CNC(CC(C)C)C(=O)O Bounds are passed on as bounds.

In assay [1] the test system is M. tuberculosis strain H37Rv (ATCC 27294). Description: microbe, parasite or virus in culture. The settings on record: Mycobacterium tuberculosis. The format is cell-based, Mycobacterium tuberculosis.
The subject of assay [2] is M. tuberculosis 5 global clade representatives. Description: microbe, parasite or virus in culture. The format is cell-based. As to conditions: Mycobacterium tuberculosis, read-out: MICs.
Assay [3] has as its system Candida albicans (ATCC 10231). In words: MIC against nonmycobacteria (OD570). The class given is cell-based. The settings on record: ATCC10231, C. albicans. The text has this: (§1) Standard compounds used were ampicillin (AMP) and gentamicin (GEN). […] Amphotericin B (AmphB) and ketoconazole (KETO) were used as standard compounds.
Assay [4] concerns Escherichia coli (ATCC 25922). Description: MIC against nonmycobacteria (OD570). The class given is cell-based. The settings on record: ATCC25922, E. coli.
From the text: as §1

Assay [5] relates to Staphylococcus aureus (ATCC 29213). In words: MIC against nonmycobacteria (OD570). The class given is cell-based. The settings on record: ATCC29213, S. aureus.
From the text: as §1

Assay [6] deals with M. smegmatis (ATCC 700084). Description: microbe, parasite or virus in culture. The format is cell-based. The settings on record: Mycolicibacterium smegmatis, ATCC700084; M. smegmatis; read-out: MIC.
The subject of assay [7] is M. abscessus (ATCC 19977). Description: microbe, parasite or virus in culture. The format is cell-based, Mycobacterium abscessus. The settings on record: Mycobacteroides abscessus, ATCC19977, M. abscessus; read-out: MIC.
The subject of another assay is M. chelonae (ATCC 35752). In words: microbe, parasite or virus in culture. The class given is cell-based, Mycobacterium chelonae. The settings on record: Mycobacteroides chelonae, ATCC35752; M. chelonae; read-out: MIC.
In a further assay the test system is M. marinum (ATCC 927). In words: microbe, parasite or virus in culture. The class given is cell-based. As to conditions: Mycobacterium marinum, ATCC927; M. marinum; read-out: MIC.
For a further assay, the system named is M. bovis (ATCC 35734). Description: microbe, parasite or virus in culture. The format is cell-based. The settings on record: Mycobacterium tuberculosis variant bovis, ATCC35734.
The next assay concerns M. kansasii (ATCC 12478). Description: microbe, parasite or virus in culture. The class given is cell-based. The settings on record: Mycobacterium kansasii, ATCC12478; M. kansasii; read-out: MIC.
For the next assay, the system named is M. avium (ATCC 15769). Description: microbe, parasite or virus in culture. The format is cell-based. As to conditions: Mycobacterium avium, ATCC15769; M. avium; read-out: MIC.
The subject of the next assay is Vero cell (ATCC CRL-81). In words: cells. The format is cell-based. As to conditions: Chlorocebus sabaeus, 72 h.
Assay [8] concerns J774A.1 macrophage (ATCC TIB-67). Description: Cytotoxicity in mammalian cells (resazurin). The class given is cell-based, murine. The settings on record: Mus musculus, J774.A1; J774, 72 h. (In general: Alamar Blue is a resazurin reagent that responds to reducing activity.)
Setting [9] is: read-out: MIC against M. tuberculosis.

On to `CO[C@H](c1ccccc1)[C@@H]1NC(=O)[C@H](C)NC(=O)[C@H](C[C@@H](C)CO)N(C)C(=O)[C@H]([C@H](O)c2cn(C(C)(C)[C@@H]3CO3)c3ccccc23)NC(=O)[C@H]([C@H](C)C=C(C)C)NC(=O)[C@H](CC(C)C)N(C)C(=O)[C@H](C(C)C)NC1=O` (stereo in doubt) [CYMA, cyclomarin A], for which the MIC in assay [1] was 0.094 µM (≈ 0.0981 µg/mL); in assay [2], 0.012 to 0.079 µM (≈ 0.0125 to 0.0824 µg/mL); in assay [3], more than 10 µM; in assay [4], more than 10 µM; in [5], more than 10 µM; in assay [6], 1.6 µM (≈ 1.67 µg/mL). In addition, the MIC was more than 5 µM in assay [7]; more than 5 µM in the assay on M. chelonae (ATCC 35752); 0.58 µM (≈ 0.605 µg/mL) in the assay with M. marinum (ATCC 927); less than 0.02 µM in the assay on M. bovis (ATCC 35734); 1.11 µM (≈ 1.16 µg/mL) with M. kansasii (ATCC 12478); 4.85 µM (≈ 5.06 µg/mL) with M. avium (ATCC 15769). The IC50 – broadly, the concentration at which inhibition is half-maximal – with Vero cell (ATCC CRL-81) was more than 50 µM; in assay [8], 19 µM.

For `CC1(C)S[C@@H]2[C@H](NC(=O)[C@H](N)c3ccccc3)C(=O)N2[C@H]1C(=O)O` [AMP, ampicillin], the MIC in [4] came to 16 µM (≈ 5.59 µg/mL); in assay [5] it was 6.1 µM (≈ 2.13 µg/mL).

`C[C@@H]1[C@H](O)[C@@H](C)/C=C/C=C/C=C/C=C/C=C/C=C/C=C/[C@H](O[C@@H]2O[C@H](C)[C@@H](O)[C@H](N)[C@@H]2O)C[C@@H]2O[C@](O)(C[C@@H](O)C[C@@H](O)[C@H](O)CC[C@@H](O)C[C@@H](O)CC(=O)O[C@H]1C)C[C@H](O)[C@H]2C(=O)O` [AmphB, amphotericin B] had an MIC in assay [3] of 2.6 µM (≈ 2.4 µg/mL).

Regarding `COc1nc2ccc(Br)cc2cc1[C@@H](c1ccccc1)[C@@](O)(CCN(C)C)c1cccc2ccccc12` [BDQ, bedaquiline], the MIC in assay [1] was 0.13 µM (≈ 0.0722 µg/mL); in assay [2], 0.017 to 0.11 µM (≈ 0.00944 to 0.0611 µg/mL); in [7], 0.96 µM (≈ 0.533 µg/mL); in the assay on M. chelonae (ATCC 35752) it was 0.46 µM (≈ 0.256 µg/mL); with M. marinum (ATCC 927) it was 0.29 µM (≈ 0.161 µg/mL); against M. bovis (ATCC 35734), 0.1 µM (≈ 0.0556 µg/mL). In addition, the MIC is 0.029 µM (≈ 0.0161 µg/mL) with M. kansasii (ATCC 12478) and 0.049 µM (≈ 0.0272 µg/mL) with M. avium (ATCC 15769). Besides, the IC50 in the assay with Vero cell (ATCC CRL-81) is 27 µM; in assay [8] it was 20 µM.

For the molecule `CC(C)/N=c1\cc2n(-c3ccc(Cl)cc3)c3ccccc3nc-2cc1Nc1ccc(Cl)cc1` [CLO, clofazimine], the MIC is 2.39 µM (≈ 1.13 µg/mL) in assay [6]; 9.23 µM (≈ 4.37 µg/mL) in [7]; 10 µM (≈ 4.73 µg/mL) in the assay on M. chelonae (ATCC 35752); 0.34 µM (≈ 0.161 µg/mL) in the assay with M. marinum (ATCC 927); less than 0.2 µM against M. bovis (ATCC 35734); less than 0.2 µM in the assay on M. kansasii (ATCC 12478). In the assay with M. avium (ATCC 15769), the MIC was less than 0.2 µM.

On to `CNC(C)C1CCC(N)C(OC2C(N)CC(N)C(OC3OCC(C)(O)C(NC)C3O)C2O)O1` (stereo not drawn) [GEN, gentamicin], for which the MIC in assay [4] is 0.23 µM (≈ 0.11 µg/mL); in [5], 0.33 µM (≈ 0.158 µg/mL).

With `C=CC(C)(C)n1cc(C[C@@H]2NC(=O)[C@H](C/C=C/C)NC(=O)[C@H](CC(C)C)N3CC(C)CC(C3=O)N(C)C(=O)[C@H](C)NC(=O)[C@H](Cc3ccc(O)c([N+](=O)[O-])c3)NC(=O)[C@H](CC(C)C)N(C)C2=O)c2ccccc21` (stereo partly drawn) [III], the MIC in assay [1] (setting [9]) worked out at 1 µM (≈ 1.01 µg/mL).

In the case of `C/C=C/C[C@@H]1NC(=O)[C@H](CC(C)C)N2C(=O)C(C[C@@H](C)[C@H]2O)N(C)C(=O)[C@H](C)NC(=O)[C@H](Cc2ccc(O)c([N+](=O)[O-])c2)NC(=O)[C@H](CC(C)C)N(C)C(=O)[C@H](Cc2cn(C(C)(C)C3CO3)c3ccccc23)NC1=O` (stereo partly drawn) [II], the MIC in assay [1] (setting [9]) came to 0.05 µM (≈ 0.0521 µg/mL).

In the case of `NNC(=O)c1ccncc1` [INH, isoniazid], the MIC was 0.23 µM (≈ 0.0315 µg/mL) in assay [1]; 0.25 to 0.47 µM (≈ 0.0343 to 0.0645 µg/mL) in [2]; 360 µM (≈ 49.4 µg/mL) in [6]; more than 8 µM in assay [7]; more than 8 µM in the assay with M. chelonae (ATCC 35752); more than 8 µM in the assay on M. marinum (ATCC 927). Also, the MIC in the assay on M. bovis (ATCC 35734) was 0.48 µM (≈ 0.0658 µg/mL); with M. kansasii (ATCC 12478) it was 3.84 µM (≈ 0.527 µg/mL); with M. avium (ATCC 15769) it was more than 8 µM.

Regarding `C/C=C/C[C@@H]1NC(=O)[C@H](CC(C)C)NC(=O)C(CC(C)C)N(C)C(=O)[C@H](C)NC(=O)[C@H](Cc2ccc(O)c([N+](=O)[O-])c2)NC(=O)[C@H](CC(C)C)NC(=O)[C@H](Cc2cn(C(C)(C)C3CO3)c3ccccc23)NC1=O` (stereo partly drawn) [IV] (cyclo(A[ξNMeL]L[Gly(E-crotyl)][X4]L[Tyr(3-NO2)])), in [1] (setting [9]), the MIC was 0.58 µM (≈ 0.588 µg/mL).
